Common to all, as to assay type: functional
The subject of one test is Cryptococcus neoformans. The test can be described thus: Antifungal activity against Cryptococcus neoformans ATCC32045 assessed as inhibition of fungal growth incubated for 72 hrs by broth microdilution method.
A further test deals with Candida albicans. As to the kind of experiment: Antifungal activity against Candida albicans ATCC10231 assessed as inhibition of fungal growth incubated for 72 hrs by broth microdilution method. Background: Dilution methods test growth across graded concentrations, often in twofold steps.
In the next test the test system is Aspergillus fumigatus. The test can be described thus: Antifungal activity against Aspergillus fumigatus AS3.3913 assessed as inhibition of fungal growth incubated for 72 hrs by broth microdilution method.
The test system of the next test is Candida tropicalis. As to the kind of experiment: Antifungal activity against Candida tropicalis ATCC1369 assessed as inhibition of fungal growth incubated for 72 hrs by broth microdilution method.

The results in this text go back to ChEMBL document CHEMBL5634120, “Natural phytoalexins inspired the discovery of new biphenyls as potent antifungal agents for treatment of invasive fungal infections” (Eur J Med Chem, 2023).

≈ marks a conversion by molar mass, not a printed value. A value given as a limit tells only on which side of the number the result lay.

A word on the MIC: it is the least concentration at which growth counts as inhibited.

Take `COc1cc(-c2ccccc2)cc(O)c1O`: the MIC with Cryptococcus neoformans turned out to be 64 µg/mL (≈ 296 µM); in the test on Candida albicans it was 128 µg/mL (≈ 592 µM); with Aspergillus fumigatus, 128 µg/mL (≈ 592 µM); with Candida tropicalis it was 128 µg/mL (≈ 592 µM).

Turning to `CCCCCc1ccc(-c2cc(O)c(O)c(O)c2)cc1`, the MIC in the test on Cryptococcus neoformans came to 2 µg/mL (≈ 7.34 µM); in the test on Candida albicans, 8 µg/mL (≈ 29.4 µM); in the test with Aspergillus fumigatus, 32 µg/mL (≈ 117 µM); with Candida tropicalis it was 4 µg/mL (≈ 14.7 µM).

As to `COc1cc(-c2ccc(CCBr)cc2)cc(O)c1O`, the minimum inhibitory concentration (MIC) turned out to be 8 µg/mL (≈ 24.8 µM) with Cryptococcus neoformans, 32 µg/mL (≈ 99 µM) with Candida albicans, 128 µg/mL (≈ 396 µM) in the test on Aspergillus fumigatus and 32 µg/mL (≈ 99 µM) in the test on Candida tropicalis.

With `COc1cc(-c2ccccc2)cc(OC(C)=O)c1OC(C)=O`, the MIC in the test on Cryptococcus neoformans, in the test on Candida albicans, with Aspergillus fumigatus and with Candida tropicalis was more than 512 µg/mL in each case.

On to `COc1cc(-c2ccccc2)cc(OC(=O)c2ccc(C)cc2)c1OC(=O)c1ccc(C)cc1`, for which the MIC with Cryptococcus neoformans, with Candida albicans, in the test with Aspergillus fumigatus and with Candida tropicalis was more than 512 µg/mL each time.

Regarding `CCc1ccccc1-c1cc(O)c(O)c(OC)c1`, the MIC was 64 µg/mL (≈ 262 µM) in the test on Cryptococcus neoformans, 256 µg/mL (≈ 1050 µM) with Candida albicans, 128 µg/mL (≈ 524 µM) in the test with Aspergillus fumigatus and 128 µg/mL (≈ 524 µM) with Candida tropicalis.

Take `CCCCc1ccc(-c2ccc(O)c(O)c2)cc1`: the MIC with Cryptococcus neoformans is 0.5 µg/mL (≈ 2.06 µM); with Candida albicans, 4 µg/mL (≈ 16.5 µM); in the test on Aspergillus fumigatus, 16 µg/mL (≈ 66 µM); with Candida tropicalis it was 4 µg/mL (≈ 16.5 µM).

In the case of `CCCCc1ccc(-c2cc(O)c(O)c(OC)c2)cc1`, the MIC in the test with Cryptococcus neoformans is 2 µg/mL (≈ 7.34 µM); in the test on Candida albicans, 16 µg/mL (≈ 58.7 µM); with Aspergillus fumigatus, 32 µg/mL (≈ 117 µM); with Candida tropicalis it was 4 µg/mL (≈ 14.7 µM).

With `COc1cc(-c2cc(C(C)(C)C)cc(C(C)(C)C)c2)cc(O)c1O`, the MIC with Cryptococcus neoformans was more than 512 µg/mL; in the test on Candida albicans it was more than 512 µg/mL; in the test on Aspergillus fumigatus, 128 µg/mL (≈ 390 µM); in the test with Candida tropicalis, more than 512 µg/mL.

Regarding `CCCCCc1ccc(-c2c(O)cccc2O)cc1`, the minimal inhibitory concentration (MIC) came out at 8 µg/mL (≈ 31.2 µM) with Cryptococcus neoformans, 32 µg/mL (≈ 125 µM) with Candida albicans, 32 µg/mL (≈ 125 µM) in the test on Aspergillus fumigatus and 32 µg/mL (≈ 125 µM) in the test with Candida tropicalis.

In the case of `CCCCCc1ccc(-c2cccc(O)c2O)cc1`, the MIC in the test on Cryptococcus neoformans was found to be 1 µg/mL (≈ 3.9 µM); in the test on Candida albicans, 4 µg/mL (≈ 15.6 µM); with Aspergillus fumigatus it was 16 µg/mL (≈ 62.4 µM); in the test with Candida tropicalis it was 2 µg/mL (≈ 7.8 µM).

Consider `CCCc1ccc(-c2cc(O)c(O)c(OC)c2)cc1`, for which the MIC was 4 µg/mL (≈ 15.5 µM) in the test with Cryptococcus neoformans, 16 µg/mL (≈ 61.9 µM) in the test on Candida albicans, 64 µg/mL (≈ 248 µM) in the test on Aspergillus fumigatus and 8 µg/mL (≈ 31 µM) with Candida tropicalis.

Consider `COc1cc(-c2ccccc2)cc(OCc2ccccc2)c1OCc1ccccc1`, for which the minimal inhibitory concentration (MIC) in the test on Cryptococcus neoformans, with Candida albicans, with Aspergillus fumigatus and in the test with Candida tropicalis was more than 512 µg/mL each time.

Consider `CCCCCc1ccc(-c2ccc(O)c(O)c2O)cc1`, for which the MIC in the test on Cryptococcus neoformans turned out to be 4 µg/mL (≈ 14.7 µM); with Candida albicans, 8 µg/mL (≈ 29.4 µM); in the test on Aspergillus fumigatus, 32 µg/mL (≈ 117 µM); in the test with Candida tropicalis it was 4 µg/mL (≈ 14.7 µM).

Consider `CCCCCCCc1ccc(-c2cc(O)c(O)c(OC)c2)cc1`, for which the MIC was 2 µg/mL (≈ 6.36 µM) in the test with Cryptococcus neoformans, 512 µg/mL (≈ 1630 µM) with Candida albicans, more than 512 µg/mL in the test on Aspergillus fumigatus and 512 µg/mL (≈ 1630 µM) with Candida tropicalis.

As to `COc1cc(-c2ccccc2)cc2c1OCO2`, the MIC in the test on Cryptococcus neoformans is more than 512 µg/mL; in the test on Candida albicans, more than 512 µg/mL; in the test on Aspergillus fumigatus it was 512 µg/mL (≈ 2240 µM); with Candida tropicalis, more than 512 µg/mL.

As to `CCc1cc(CC)cc(-c2cc(O)c(O)c(OC)c2)c1`, the MIC stood at 8 µg/mL (≈ 29.4 µM) in the test with Cryptococcus neoformans, 64 µg/mL (≈ 235 µM) with Candida albicans, 32 µg/mL (≈ 117 µM) in the test with Aspergillus fumigatus and 16 µg/mL (≈ 58.7 µM) with Candida tropicalis.

Take `COc1cc(-c2ccc(C3CCCCC3)cc2)cc(O)c1O`: the MIC in the test on Cryptococcus neoformans was 2 µg/mL (≈ 6.7 µM); in the test with Candida albicans, 512 µg/mL (≈ 1720 µM); in the test on Aspergillus fumigatus, more than 512 µg/mL; with Candida tropicalis, 512 µg/mL (≈ 1720 µM).

In the case of `CCCc1ccc(-c2ccc(-c3cc(O)c(O)c(OC)c3)cc2)cc1`, the MIC was 4 µg/mL (≈ 12 µM) in the test with Cryptococcus neoformans, 512 µg/mL (≈ 1530 µM) in the test on Candida albicans, more than 512 µg/mL in the test with Aspergillus fumigatus and 64 µg/mL (≈ 191 µM) in the test on Candida tropicalis.

As to `CCCCCCc1cccc(-c2cc(O)c(O)c(OC)c2)c1`, the MIC in the test with Cryptococcus neoformans was 2 µg/mL (≈ 6.66 µM); in the test with Candida albicans, more than 512 µg/mL; in the test with Aspergillus fumigatus, 512 µg/mL (≈ 1700 µM); with Candida tropicalis, 8 µg/mL (≈ 26.6 µM).

Consider `COc1cc(-c2ccccc2)cc(OC)c1O` [AUCUPARIN], for which the MIC with Cryptococcus neoformans was 64 µg/mL (≈ 278 µM); in the test with Candida albicans it was more than 512 µg/mL; in the test with Aspergillus fumigatus, more than 512 µg/mL; in the test with Candida tropicalis, more than 512 µg/mL.

In the case of `CCCCCc1ccc(-c2cc(O)c(O)c(OC)c2)cc1`, the MIC with Cryptococcus neoformans was found to be 2 µg/mL (≈ 6.98 µM); with Candida albicans, 8 µg/mL (≈ 27.9 µM); in the test with Aspergillus fumigatus, 512 µg/mL (≈ 1790 µM); with Candida tropicalis it was 2 µg/mL (≈ 6.98 µM).

As for `C=CCOc1cc(-c2ccccc2)cc(OC)c1OCC=C`, the MIC with Cryptococcus neoformans, with Candida albicans, with Aspergillus fumigatus and in the test with Candida tropicalis was more than 512 µg/mL in each case.

For `CCc1ccc(-c2cc(O)c(O)c(OC)c2)cc1`, the MIC in the test on Cryptococcus neoformans stood at 8 µg/mL (≈ 32.7 µM); with Candida albicans, 32 µg/mL (≈ 131 µM); in the test with Aspergillus fumigatus, 64 µg/mL (≈ 262 µM); in the test on Candida tropicalis it was 32 µg/mL (≈ 131 µM).

As to `CCCCC(=O)c1ccc(-c2cc(O)c(O)c(OC)c2)cc1`, the minimum inhibitory concentration (MIC) in the test on Cryptococcus neoformans, in the test with Candida albicans, with Aspergillus fumigatus and in the test with Candida tropicalis was 512 µg/mL (≈ 1700 µM) throughout.

Turning to `COc1cc(-c2ccc(C(C)C)cc2)cc(O)c1O`, the MIC with Cryptococcus neoformans is 8 µg/mL (≈ 31 µM); in the test on Candida albicans, 16 µg/mL (≈ 61.9 µM); in the test on Aspergillus fumigatus it was 64 µg/mL (≈ 248 µM); with Candida tropicalis, 16 µg/mL (≈ 61.9 µM).

Take `COc1cc(-c2ccc(CCC#N)cc2)cc(O)c1O`: the minimal inhibitory concentration (MIC) in the test with Cryptococcus neoformans, with Candida albicans, with Aspergillus fumigatus and with Candida tropicalis was 512 µg/mL (≈ 1900 µM) in each case.

As for `CCCCCCc1ccc(-c2cc(O)c(O)c(OC)c2)cc1`, the minimum inhibitory concentration (MIC) in the test on Cryptococcus neoformans was 1 µg/mL (≈ 3.33 µM); with Candida albicans, 512 µg/mL (≈ 1700 µM); in the test with Aspergillus fumigatus it was more than 512 µg/mL; in the test on Candida tropicalis, 4 µg/mL (≈ 13.3 µM).

Turning to `Oc1cc(-c2ccccc2)cc(O)c1O`, the MIC was 256 µg/mL (≈ 1270 µM) in the test on Cryptococcus neoformans, more than 512 µg/mL in the test with Candida albicans, more than 512 µg/mL with Aspergillus fumigatus and more than 512 µg/mL in the test with Candida tropicalis.

`COc1cc(-c2ccc(O)cc2)cc(O)c1O`: the MIC with Cryptococcus neoformans, in the test with Candida albicans, with Aspergillus fumigatus and with Candida tropicalis was more than 512 µg/mL each time.

Turning to `COc1cc(-c2ccccc2F)cc(O)c1O`, the MIC in the test with Cryptococcus neoformans came to 128 µg/mL (≈ 546 µM); with Candida albicans it was 128 µg/mL (≈ 546 µM); with Aspergillus fumigatus, 64 µg/mL (≈ 273 µM); in the test on Candida tropicalis, 128 µg/mL (≈ 546 µM).

In the case of `CCc1cccc(-c2cc(O)c(O)c(OC)c2)c1`, the MIC came out at 32 µg/mL (≈ 131 µM) in the test on Cryptococcus neoformans, 128 µg/mL (≈ 524 µM) in the test with Candida albicans, 128 µg/mL (≈ 524 µM) in the test on Aspergillus fumigatus and 128 µg/mL (≈ 524 µM) with Candida tropicalis.

Turning to `COc1cc(-c2ccccc2)cc(OC(=O)C2CCCCC2)c1OC(=O)C1CCCCC1`, the MIC in the test on Cryptococcus neoformans, in the test with Candida albicans, with Aspergillus fumigatus and in the test on Candida tropicalis was more than 512 µg/mL in each case.

On to `COc1cc(-c2ccc(C(C)(C)C)cc2)cc(O)c1O`, for which the minimum inhibitory concentration (MIC) was determined as 4 µg/mL (≈ 14.7 µM) in the test with Cryptococcus neoformans, 16 µg/mL (≈ 58.7 µM) in the test on Candida albicans, 64 µg/mL (≈ 235 µM) with Aspergillus fumigatus and 16 µg/mL (≈ 58.7 µM) in the test on Candida tropicalis.

Take `CCCCCCCCc1ccc(-c2cc(O)c(O)c(OC)c2)cc1`: the MIC in the test with Cryptococcus neoformans is 4 µg/mL (≈ 12.2 µM); in the test with Candida albicans it was more than 512 µg/mL; in the test on Aspergillus fumigatus it was more than 512 µg/mL; in the test on Candida tropicalis, more than 512 µg/mL.

With `CCCCCc1ccc(-c2cc(O)ccc2O)cc1`, the MIC in the test on Cryptococcus neoformans was found to be 2 µg/mL (≈ 7.8 µM); in the test with Candida albicans, 16 µg/mL (≈ 62.4 µM); in the test with Aspergillus fumigatus it was 64 µg/mL (≈ 250 µM); in the test with Candida tropicalis, 16 µg/mL (≈ 62.4 µM).
